Laboratory results reported in patent publication US20260108602A1, “METHODS AND SYSTEMS FOR IMPROVING ANTI-CANCER THERAPIES” (Osasuna Therapeutics SA, priority 2023, published 2026).

Experiments:
[1] = tested on: Dbi^+/+ and Dbi^−/− HCC cells; assay: CCK-8 viability assay of primary HCC cells treated with ferroptosis inducers; type: cell-based, mouse; conditions: ferroptosis inducer combined with Dbi knockout; normalized to respective Dbi^+/+ and Dbi^−/− vehicle controls
Method: (FIG. 26A-FIG. 26D). Groups receiving ferroptosis inducers were normalized to their respective Dbi^+/+ and Dbi^−/− vehicle (Veh) treated control groups.
Proliferation assays. CCK-8 assays were performed with a commercial kit. For colony formation assays, HEPG-2 (NC, SH1, SH2, and SH3, 1000 cells/well), HUH-7 (NC, SH1, SH2, and SH3, 1000 cells/well) and Hep55.1C (NC, SH1, SH2, and SH3, 500 cells/well) cancer cells were seeded into 6-well plates in 2 mL medium with 10% FBS. The medium was changed every 3 days until control (NC) wells approached confluency, within 7-14 days. After gently washed twice with PBS, colonies were fixed with 4% paraformaldehyde for 30 min and stained with 0.2% crystal violet for 30 min at room temperature. The colony number (colonies >0.3 mm) was counted with isoftware. All experiments were performed in triplicates.
Six-well plates were coated with 2% FBS/PBS+0.1% laminin. HCC tumors were isolated from NASH-driven mouse model (WD+D-fructose+D-glucose in water+CCl4 administered to DBI^+/+ or DBI^−/− mice) and washed twice with ice-cold PBS. The tumor tissues were transferred to 10 cm plates, minced completely with a razor blade and then transferred to 15 mL falcon tubes. Ten mL 2 mg/mL collagenase dispase solution was added, the cells were incubated rotating for 30 min at 37° C. and were filtered through 100 μm meshes into 50 mL falcon tubes, before addition of 10 mL 2% FBS/PBS to wash the tissues. The samples were then filtered sequentially through 70 μm and 40 μm strainers, brought up to 15 mL volume and centrifuged again (room temperature (RT), 1000 rpm, 2 min). The cells were then resuspended in 5 mL of 1×red blood cell (RBC) lysis buffer, incubated on ice for 10 min before addition of 5 mL 2% FBS/PBS, followed by spinning (RT, 1000 rpm, 2 min). The washing step was repeated 2 times, and the cells were resuspended in culture medium (500 mL DMEM+10% FBS+1×ITS+20 μl EGF (1 μg/μl)+20 μl IGFII (0.2 μg/μl)), before seeding into 6-well plates.

[2] = tested on: MCA205 fibrosarcoma cells; assay: Anti-tumor vaccination assay (MTX-treated MCA205 cells, rechallenge with live cells); type: in vivo, C57BL/6J mice; conditions: CORT in drinking water + vaccination with MTX-treated MCA205 cells
Method: Wild-type MCA205 cells were treated with MTX (4 μM) for 24 h. Then supernatants and detached cells were collected and centrifuged, and the pellet was further washed with ice-cold PBS. 2×10^6 cells in 100 μl PBS were s.c. injected to the left flank of immunocompetent C57BL/6J mice (day −7). PBS was injected as a negative control. One week later, all mice were confirmed tumor-free in the vaccination flank and living cancer cells (2×10^5 cells per mouse for MCA205 cells) were injected in the right flank of vaccinated mice (day 0). Corticosterone and neutralizing anti-DBI monoclonal antibody were continually administrated throughout the experiment. Tumor growth was regularly monitored for the following weeks.
After the first week of treatment, the animals were subcutaneously (s.c.) injected with mitoxantrone (MTX)-treated MCA205 fibrosarcoma cells, knowing that MTX-induces ICD and that MTX-treated cancer cells induce a protective anti-cancer immune response that suppresses, delays or reduces the growth of tumors that would grow in naïve mice after injection of live, untreated MCA205 fibrosarcoma cell. [Panaretakis T. et al., Mechanisms of pre-apoptotic calreticulin exposure in immunogenic cell death, EMNO J, 2009, 28 (5), pp. 578-590.]

TC1 NSCLC cells = assay: Orthotopic TC1 Luc lung cancer model (bioluminescence imaging); type: in vivo, C57BL/6J mice; conditions: corticosterone in drinking water + OXA + anti-PD1
Method: TC-1—To establish the orthotopic TC1 model, wild type TC1 Luc cells (5×10^5 in 100 μL PBS) were intravenously injected to wild type C57BL/6J mice. Tumor incidence and development were monitored by in vivo photonic imaging of tumor cells' luciferase activity. About 7 days after injection, tumor incidence in the lung was detected at an exposure time of 4 min, and mice were randomized according to quantified tumor sizes and assigned to different groups for treatment as described below. Anti-DBI or isotype control antibody was intraperitoneally (i.p.) injected on day 9, at the dose of 2.5 mg/kg body weight, and on day 10, then maintained every other day until day 18. […]
Next, the positive effects of anti-ACBP/DBI mAb on chemo-immunotherapy in another model, namely non-small cell lung cancers (NSCLC) were confirmed. TC1 NSCLC cells expressing luciferase injected intravenously (i.v.) into syngeneic immunocompetent C57BL/6J mice form orthotopic lung cancers that can be monitored by bioluminescence imaging. […] From day 9 post-inoculation of TC1 cells, NSCLC-bearing mice were periodically i.p. injected with anti-ACBP/DBI mAb (or an isotype control mAb) and then were treated on day 11 post-inoculation with OXA (i.p. once) and anti-PD1 mAb (injected i.p. on days 19, 23 and 27 post-TC1 injection) (FIG. 4A) and tumor progression was determined by bioluminescence imaging (FIG. 4B). […]

[3] = tested on: E0771 breast cancer cells; assay: Subcutaneous E0771 breast cancer model with anti-PD1 immunotherapy
Method: E0771—For the establishment of syngeneic solid tumors, C57BL/6J mice (8-weeks-old female) were injected subcutaneously (s.c.) with 5×10^5 wild type E0771 in the right lower quadrant of the abdomen alongside of the mammary gland (close to the orthotopic site). Approximately 7 days after injection, tumor growth was monitored with an electronic caliper and mice were assigned to different groups. From day 8, mice were treated with a neutralizing anti-DBI monoclonal antibody (5 mg/kg) or its isotype (IgG2A, 5 mg/kg) every two days. At the same time, free corticosterone (Sigma-Aldrich) was added to the drinking water (0.1 mg/ml; water/ethanol 0.66%). Anti-PD1 monoclonal antibody (αPD1; 10 mg/kg) was injected at days 12, 15, 18 and 21. Tumor growth was monitored routinely with an electronic caliper.
For tumor growth experiments, longitudinal analyses were performed by linear mixed effect modeling of tumor sizes. […]
C57BL/6J mice were inoculated subcutaneously (s.c.) with syngeneic E0771 breast cancer cells. Six days later treatment of corticosterone (CORT or as a control with vehicle only, 0.66% ethanol, which was administered in the drinking water) and anti-ACBP/DBI mAb (or the isotype control mAb, both injected i.p. three times per week) was initiated and tumor growth was monitored over several weeks. […]

SMILES	viability (CCK-8) [1]	vaccination effect [2]	chemo-immunotherapeutic effect (tumor size by bioluminescence) (TC1 NSCLC cells)	tumor growth (effect of anti-PD1) ([3]; CORT in drinking water + anti-PD1)	animal survival (efficacy of anti-PD1) ([3]; corticotherapy + anti-PD1)
CC(C)Oc1ccc(C(=O)Cn2ccnc2)cc1-n1c(CN2CCN(C(=O)COc3ccc(Cl)cc3)CC2)nc2ccccc2c1=O [IKE, imidazole ketone erastin]	particularly vulnerable to losing their viability	–	–	–	–
CCCCC/C=C\C/C=C\CCCCCCCC(=O)O [LA, linoleic acid]	particularly vulnerable to losing their viability	–	–	–	–
COC(=O)c1ccc([C@@H]2c3[nH]c4ccccc4c3C[C@@H](C(=O)OC)N2C(=O)CCl)cc1 [RSL3]	particularly vulnerable to losing their viability	–	–	–	–
C[C@]12C[C@H](O)[C@H]3[C@@H](CCC4=CC(=O)CC[C@@]43C)[C@@H]1CC[C@@H]2C(=O)CO [corticosterone]	–	reduced this vaccination effect	strongly interfered	lost	loss
